Reference: patent US4460576A, “Peptide and hormone agent containing the same as effective ingredient” (Kaken Pharmaceutical Co., Ltd., priority 1982, dated 1984)
Where “and” joins values, the source holds several entries; their conditions need not be identical. Identical values can stand only once. Positions of bridges follow the written chain, without caps; N, C: chain ends. Residues, ends and D or L forms follow the SMILES beside them. No end group written: not given here.

Experiments:
Male Wistar rats = assay: GH-releasing activity of [Gln^16 ]--GH--RH in vivo, plasma GH by RIA (Pharmacological Test Example 3); design: species or system rat; conditions: for GH Concentration, individual rats / GH Concentration Mean ± S.E.: plasma; for GH Concentration, individual rats: rats G, H, I, J, K, L in order; for GH Concentration Mean ± S.E.: procedure of Test Example 2, six rats G to L
Procedure: Male Wistar rats of 10 weeks old were used. The rats were anesthetized with pentobarbital administered intraperitoneally (i.p.) in a dosage of 50 mg./kg. and fixed. Silastic tube (Dow Corning 0.020 in I.D., by 0.037 in O.D.) cannula of 3.5 cm was inserted to the heart side of right jugular vein in the rat. In the rat with chronic vein-cannula in plant, the other side of the cannula was taken out by 3 cm. from backside of neck and fixed on outer layer of skin.
From the cannula was injected 0.5 ml. of 20 units/ml. heparin, and then the cannula was pluged with a stainless-steel wire stopper. The rats were subjected to injecting of GH--RH and blood-gathering under non-anesthetic condition on the next day. Chlorpromazine hydrochloride was administered i.p. before 4 hrs. of injection in a dosage of 2 mg./kg. Four rats (D to G) received injection from the cannula of 440 μg./kg. of GH--RH obtained from salmon in Example 1. Three rats (A to C) received physiological saline as a control.
From each rat, 0.5 ml. of blood was gathered before 15 minutes of injection and after 15, 30, 60, 120 and 180 minutes of injection.
The gathered blood was centrifuged at 2,000×g for 10 minutes. For measuring GH-releasing activity, the supernatant (plasma) was assayed by means of a radio immuno assay (hereinafter referred to as "RIA") according to a double antibody method (see C. A. Birge et al Endocrinology 81, p.195 (1967)). The RIA of rat GH was carried out by employing NIH kit. The results are shown in Table 4 and FIG. 8 in which symbols A to G described in Table 4 correspond to those described in FIG. 8.
The procedure of Pharmacological Test Example 2 was repeated except that six rats were used, respectively, as to the group receiving [Gln^16 ]--GH--RH and as to the group receiving physiological saline and the blood-gathering was carried out before 15 minutes of injection and after 15, 30, 60, 120, 180, 240 and 300 minutes, respectively, of injection.

[1] = R. Guillemin et al, Science, 218, p.585 (1982); cited from earlier work
[2] = tested on: anterior pituitaries obtained from male Wistar Rats; assay: GH release from pieces of rat anterior pituitaries on a column, radioimmunoassay (Pharmacological Test Example 1); type: cell-based
Procedure: Small pieces of anterior pituitaries obtained from male Wistar Rats were placed on top of a column being an injection cylinder having one […] diameter packed with 0.3 to 0.5 ml. of Sephadex G 25 equilibrated with a Krebs-Ringer buffer solution containing 0.1% calf serum at a flow rate of 0.5 ml./min. On the column were chromatographed 1 ml. of a control solution (a Klebs-Ringer buffer solution), 1 ml. of 2 μg./ml. solution of TRH and 1 ml. of 2 μg./ml. solution of the GH--RH obtained in Example 1 in that order. The column effluent was collected in 1 ml.-fractions and each fraction was analyzed by means of a radioimmunoassay with an anti-rat GH antibody (NIH standard) to determine an amount of the released rat GH in the assay.

Compound: CSCC[C@@H]1NC(=O)[C@@H](NC(=O)[C@H](CCCNC(=N)N)NC(=O)[C@H](CCSC)NC(=O)[C@@H](NC(=O)[C@@H](N)CC(=O)O)[C@@H](C)O)CSSC[C@@H](C(=O)N[C@@H](Cc2c[nH]c3ccccc23)C(=O)N[C@@H](CCC(N)=O)C(=O)N[C@H](C(=O)O)C(C)C)NC(=O)[C@@H]2CCCN2C(=O)[C@H](CCCNC(=N)N)NC(=O)[C@H](Cc2ccc(O)cc2)NC(=O)[C@H](C(C)C)NC(=O)[C@H](CCCNC(=N)N)NC(=O)CNC(=O)[C@H](C(C)C)NC1=O [[Gln^16]--GH--RH] (H-DTMRCMVGRVYRPCWQV-OH; disulfide 5-14)
- increase of GH concentration in plasma compared with the control group (Male Wistar rats; FIG. 9): evident increase of GH concentration in plasma was observed from 30 to 60 minutes after injection
- GH Concentration, individual rats (Male Wistar rats; 15 min after injection): 10.04 μIU/ml. and 9.76 μIU/ml. and 7.20 μIU/ml. and 11.52 μIU/ml. and 7.64 μIU/ml. and 8.08 μIU/ml.
- GH Concentration, individual rats (Male Wistar rats; 30 min after injection): 9.80 μIU/ml. and 7.72 μIU/ml. and 34.84 μIU/ml. and 8.36 μIU/ml. and 30.68 μIU/ml. and 57.80 μIU/ml.
- GH Concentration, individual rats (Male Wistar rats; 60 min after injection): 56.52 μIU/ml. and 47.00 μIU/ml. and 63.40 μIU/ml. and 115.36 μIU/ml. and 21.48 μIU/ml. and 44.88 μIU/ml.
- GH Concentration, individual rats (Male Wistar rats; 120 min after injection): 22.48 μIU/ml. and 29.32 μIU/ml. and 23.56 μIU/ml. and 18.08 μIU/ml. and 13.24 μIU/ml. and 11.52 μIU/ml.
- GH Concentration, individual rats (Male Wistar rats; 180 min after injection): 10.08 μIU/ml. and 9.72 μIU/ml. and 10.56 μIU/ml. and 10.24 μIU/ml. and 9.48 μIU/ml. and 8.20 μIU/ml.
- GH Concentration, individual rats (Male Wistar rats; 240 min after injection): 25.84 μIU/ml. and 8.36 μIU/ml. and 30.00 μIU/ml. and 36.48 μIU/ml. and 7.80 μIU/ml. and 11.52 μIU/ml.
- GH Concentration, individual rats (Male Wistar rats; 300 min after injection): 12.36 μIU/ml. and 12.08 μIU/ml. and 10.32 μIU/ml. and 16.64 μIU/ml. and 12.96 μIU/ml. and 10.76 μIU/ml.
- GH Concentration, individual rats (Male Wistar rats; -15 min (before injection)): 10.52 μIU/ml. and 9.36 μIU/ml. and 8.56 μIU/ml. and 6.32 μIU/ml. and 7.20 μIU/ml. and 8.96 μIU/ml.
- GH Concentration Mean ± S.E. (Male Wistar rats; 15 min after injection): 9.04 ± 0.68 μIU/ml.
- GH Concentration Mean ± S.E. (Male Wistar rats; 30 min after injection): 24.87 ± 8.19 μIU/ml.
- GH Concentration Mean ± S.E. (Male Wistar rats; 60 min after injection): 58.11 ± 12.84 μIU/ml.
- GH Concentration Mean ± S.E. (Male Wistar rats; 120 min after injection): 19.70 ± 2.75 μIU/ml.
- GH Concentration Mean ± S.E. (Male Wistar rats; 180 min after injection): 9.71 ± 0.34 μIU/ml.
- GH Concentration Mean ± S.E. (Male Wistar rats; 240 min after injection): 20.00 ± 5.04 μIU/ml.
- GH Concentration Mean ± S.E. (Male Wistar rats; 300 min after injection): 12.52 ± 0.92 μIU/ml.
- GH Concentration Mean ± S.E. (Male Wistar rats; -15 min (before injection)): 8.49 ± 0.62 μIU/ml.
- GH-releasing effect (Male Wistar rats; rats in vivo): has a GH-releasing effect

Compound: hpGRF: GH-releasing factor isolated from human pancreatic cancer (YADAIFTNSYRKVLGQLSARKLLQDIMSRQQGESNQERGARARL; ends and bridges not checked; UniProt P01286 32-75, looked up)
- time after injection at which increase of GH is shown [1]: 5 min

Compound: thyrotropic releasing hormone [TRH]
- Amount of Released Rat GH ([2]; 1 ml. of 2 μg./ml. solution on the column, RIA with anti-rat GH antibody): 300 ng/mL
- releasing manner of GH ([2]; elution profile of released GH): broad
